Measured values from PubChem BioAssay (NCI).
“And” between values parts separate entries of the source, which are not always exact repeats. Equal values may be shown once.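 Grown in 96-well plates, cells were treated for 48 hours with each compound at five concentrations. Insufficient inhibition: endpoint recorded as highest concentration tested. At the GI50, growth is halved. At the TGI there is no net growth.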

Legend:
Test in all cases: inhibition of tumour cell growth, NCI panel, 48 h
MOLT-4 leukemia = test system: MOLT-4 leukemia
A549 NSCLC = test system: A549 NSCLC
COLO 205 colon = test system: COLO 205 colon
CCRF-CEM leukemia = test system: CCRF-CEM leukemia
SK-MEL-2 melanoma = test system: SK-MEL-2 melanoma
SF-295 CNS = test system: SF-295 CNS
SK-MEL-5 melanoma = test system: SK-MEL-5 melanoma
UACC-257 melanoma = test system: UACC-257 melanoma
MALME-3M melanoma = test system: MALME-3M melanoma
HCC-2998 colon = test system: HCC-2998 colon

Structure (SMILES)	GI50 (MOLT-4 leukemia)	TGI (MOLT-4 leukemia)	GI50 (A549 NSCLC)	TGI (A549 NSCLC)	GI50 (COLO 205 colon)	TGI (COLO 205 colon)	GI50 (CCRF-CEM leukemia)	TGI (CCRF-CEM leukemia)	GI50 (SK-MEL-2 melanoma)	TGI (SK-MEL-2 melanoma)	GI50 (SF-295 CNS)	TGI (SF-295 CNS)	GI50 (SK-MEL-5 melanoma)	TGI (SK-MEL-5 melanoma)	GI50 (UACC-257 melanoma)	TGI (UACC-257 melanoma)	GI50 (MALME-3M melanoma)	TGI (MALME-3M melanoma)	GI50 (HCC-2998 colon)	TGI (HCC-2998 colon)
COc1ccc(-c2cc3cccc(OC)c3c(=O)o2)cc1OC	47.9 µM	> 100 µM	59.4 µM	> 100 µM	35.8 µM	> 100 µM	30900 nM	> 100 µM	> 100 µM	> 100 µM	33.8 µM	> 100 µM	4140 nM	40.8 µM	92.8 µM	> 100 µM	> 100 µM	> 100 µM	–	–
O=C1c2ccn(CCCCN3CCOCC3)c2C(=O)c2c1c(O)c1ccccc1c2O	–	–	14.4 µM	38.7 µM	5.69 µM	34 µM	2750 nM	> 100 µM	–	–	3.58 µM	16.2 µM	–	–	8.43 µM	27.4 µM	–	–	–	–
CCCCOC1CC2(c3ccc(OC)cc3)C(=O)c3ccccc3N2O1 (configuration not stated)	–	61.5 µM	–	> 100 µM	–	54.1 µM	–	> 100 µM	–	> 100 µM	–	> 100 µM	–	88.4 µM	–	70.1 µM	–	58.3 µM	–	–
Cc1ccc(S(=O)(=O)N(C)C)cc1[N+](=O)[O-]	–	–	> 100 µM	> 100 µM	> 100 µM	> 100 µM	> 100000 nM	> 100 µM	–	–	> 100 µM	> 100 µM	> 100000 nM	> 100 µM	> 100 µM	> 100 µM	> 100 µM	> 100 µM	> 100000 nM	> 100 µM
CCCOC(=O)N[C@H]1CCc2c(Br)c(OC)c(OC)c(OC)c2-c2ccc(SC)c(=O)cc21	0.0382 µM	> 100 µM	0.0395 µM	> 68.4 µM	–	–	27.4 nM	> 51.2 µM	2.44 µM	37.1 µM	0.0252 µM	0.833 µM	16.2 nM	0.0501 µM	5.02 µM	32.6 µM	0.0348 µM	27.2 µM	31.7 nM	4.26 µM
COC(=O)OCC1OC(N2C(=O)NC(=O)C(I)C2N=[N+]=[N-])CC1OC(=O)OC (configuration not stated)	–	> 100 µM	–	> 100 µM	–	> 100 µM	–	> 100 µM	–	–	–	> 100 µM	–	> 100 µM	–	> 100 µM	–	> 100 µM	–	> 100 µM
COc1ccc(/C=C2/CN(C(=O)c3ccccc3F)C/C(=C\c3ccc(OC)cc3)C2=O)cc1	3.79 µM	49.5 µM	4.83 µM	34.3 µM	3.82 µM	12.3 µM	2760 nM	> 100 µM	15.3 µM	35.8 µM	–	–	1880 nM	4.14 µM	3.24 µM	13.3 µM	5.83 µM	21.3 µM	1910 nM	3.48 µM
O=[N+]([O-])c1ccccc1S(=O)c1ccccc1 (configuration not stated)	–	> 100 µM	–	> 100 µM	–	–	–	> 100 µM	–	> 100 µM	–	> 100 µM	–	> 100 µM	–	> 100 µM	–	> 100 µM	–	> 100 µM
Nc1nc2ncn(CCO)c2c(=O)[nH]1	–	> 100 µM	–	> 100 µM	–	> 100 µM	–	> 100 µM	–	> 100 µM	–	> 100 µM	–	–	–	> 100 µM	–	> 100 µM	–	> 100 µM
O=c1cc2n(c(=O)[nH]1)C1OC(C(O)C1O)[C@@H]2CCO (some centres not stated)	–	> 100 µM	–	> 100 µM	–	–	–	> 100 µM	–	> 100 µM	–	> 100 µM	–	> 100 µM	–	> 100 µM	–	> 100 µM	–	–
CS(=O)(=O)NNS(=O)(=O)c1ccc(Br)cc1	–	–	–	> 100 µM	–	> 100 µM	–	> 100 µM	–	> 100 µM	–	–	–	> 100 µM	–	> 100 µM	–	> 100 µM	–	> 100 µM
O=CC1=CCCC2(C1)OCCO2	–	–	–	> 100 µM	–	> 100 µM	–	> 100 µM	–	> 100 µM	–	> 100 µM	–	> 100 µM	–	> 100 µM	–	> 100 µM	–	> 100 µM
CC(=O)O[C@]1(C(C)=O)CC[C@H]2[C@@H]3C[C@H](C)C4=CC(=O)C=C[C@]4(C)[C@@]3(F)[C@@H](O)C[C@@]21C	–	> 100 µM	–	> 100 µM	–	> 100 µM	–	> 100 µM	–	–	–	> 100 µM	–	> 100 µM	–	> 100 µM	–	> 100 µM	–	> 100 µM
CC1=CC[C@@H]2[C@@H](CC[C@@]2(C)O)C(C)(C)[C@H]1CC[C@@H]1[C@@]2(C)CCC(=O)C(C)(C)O[C@@H]2CC[C@]1(C)O	–	68.5 µM	–	> 100 µM	–	55.8 µM	–	48 µM	–	> 100 µM	–	48.9 µM	–	39.1 µM	–	> 100 µM	–	–	–	40.9 µM
O=c1/c(=C/c2cccc3ccccc23)sc2nc3ccccc3n12	–	–	–	> 100 µM	–	> 100 µM	–	–	–	> 100 µM	–	> 100 µM	–	> 100 µM	–	> 100 µM	–	> 100 µM	–	> 100 µM
O=C1OCC(c2ccc(O)c(O)c2)=C1c1cc(O)c(O)c(O)c1	12.9 µM	27.8 µM	21.6 µM	76 µM	23.3 µM	57.7 µM	30400 nM	> 100 µM	–	–	14.6 µM	30.9 µM	38200 nM	> 100 µM	93.8 µM	> 100 µM	> 100 µM	> 100 µM	–	–
OCCN1CCN(CCCN2c3ccccc3Sc3ccc(C(F)(F)F)cc32)CC1	2.35 µM and 9.23 µM and 2.83 µM	8.44 µM and 27 µM and 8.49 µM	2.79 µM and 10.8 µM and 9.54 µM	9.84 µM and 24 µM and 22.9 µM	0.795 µM and 2.17 µM and 1.93 µM	1.53 µM and 4.46 µM and 3.59 µM	2590 nM	9.67 µM	–	–	1.02 µM and 4.73 µM and 2.41 µM	2.7 µM and 19.2 µM and 6.19 µM	764 nM and 3020 nM and 1980 nM	1.43 µM and 11 µM and 4.8 µM	0.863 µM and 2.01 µM and 1.96 µM	1.74 µM and 4.97 µM and 4.19 µM	–	–	824 nM and 2750 nM and 1970 nM	1.6 µM and 7.99 µM and 4.21 µM
N=C(N)/N=C(/C=C/c1ccccc1)CC1OC(=O)c2ccccc21 (configuration not stated)	–	> 100 µM	–	> 100 µM	–	> 100 µM	–	> 100 µM	–	> 100 µM	–	–	–	> 100 µM	–	> 100 µM	–	> 100 µM	–	> 100 µM
Cc1cccc(C)c1NC(=O)CCC(=O)NNC(=O)c1cc(O)c2ccccc2c1	–	> 100 µM	–	> 100 µM	–	49 µM	–	72.5 µM	–	–	–	87.6 µM	–	84.6 µM	–	> 100 µM	–	> 100 µM	–	> 100 µM
